Assay results taken from patent US9738675B2, “Water-soluble photochromic compound” (RIKKYO EDUCATIONAL CORPORATION, priority 2012, dated 2017).

Legend:
[1] = Photochromic property: absorption and fluorescence spectra in solution; type: physicochemical
Procedure: The spectrum of the open ring form is shown by dotted line 10. Irradiation with the UV light (313 nm) turned the solution purple, and a spectrum shown by solid line 20 was observed.
The water solubility of a compound of formula (I-2) was assessed similarly to Example 1, to check that the compound is water soluble. Specifically, the compound of (1-2) was dissolved in a small amount of methanol (0.2 mL), and distilled water (4 mL) was added to prepare a 95% aqueous solution, and an absorption spectrum of FIG. 2 (by Hitachi, using U-4100) was obtained as a result. The spectrum of the open ring form is shown by dotted line 10. Irradiation with a UV light (313 nm) turned the solution yellow, and a spectrum shown by solid line 20 was observed. In addition, the irradiation with the UV light made the compound fluorescent, and a spectrum of solid line 30 was obtained.
Curve 10 is a spectrum of the compound (open ring form) of formula (I-3), and the maximum absorption wave length was 254 nm. Then, an aqueous solution of the compound of formula (I-3) was irradiated with light of 254 nm to obtain a photostationary state (PSS), in which the ring closing reaction has ended. The spectrum at this state is shown as curve 20. The maximum absorption wavelength of the closed ring form was 595 nm.
About 0.5 mg of the given compound was dissolved in each of 0.5 mL of water/methanol (weight rate of 90/10) and 0.5 mL of only methanol to prepare a solution. For convenience, the former will be referred to as an aqueous solution, and the latter will be referred to as a methanol solution. Curve 10 is a spectrum of the compound of formula (I-4) (open ring form). In the methanol solution, the maximum absorption wavelength is 450 nm, and the molar absorption coefficient was 39000 M^−1 cm^−1. The absorption disappeared when irradiated with visible light, and the solution returned to a colorless state. Curve 20 is a spectrum of the closed ring form. […] Further, the fluorescence disappeared when the compound returned to the open ring form.
In the aqueous solution, the maximum absorption wavelength of the open ring form was 458 nm, and the molar absorption coefficient was 36000 M^−1 cm^−1. The absorption disappeared when irradiated with visible light, and the solution returned to a colorless state. […] Further, the fluorescence disappeared when the compound returned to the open ring form.

[2] = Assessment of water-solubility; type: physicochemical; conditions: assessed similarly to Example 1
Procedure: The water solubility of a compound of formula (I-2) was assessed similarly to Example 1, to check that the compound is water soluble.

[3] = 95% aqueous solution, UV 313 nm

Q: What does the source list for CC1=C(C2=C(C3=C(C)S(=O)(=O)c4cc(CO[C@@H]5O[C@H](CO)[C@@H](O)[C@H](O)[C@H]5O)ccc43)C(F)(F)C(F)(F)C2(F)F)c2ccc(CO[C@@H]3O[C@H](CO)[C@@H](O)[C@H](O)[C@H]3O)cc2S1(=O)=O [I-2]?
A: colour of solution after irradiation with UV light [1, 3]: yellow; fluorescence after irradiation with UV light [1, 3]: fluorescent; water solubility [2]: water soluble

Q: With Cc1sc(C(=O)O[C@@H]2[C@H](O)[C@@H](O)[C@H](O)[C@@H](O)[C@@H]2O)cc1C1=C(c2cc(C(=O)O[C@@H]3[C@H](O)[C@@H](O)[C@H](O)[C@@H](O)[C@@H]3O)sc2C)C(F)(F)C(F)(F)C1(F)F [I-3] as the molecule, how does the “maximum absorption wave length, open ring form” value ([1]; aqueous solution) read?
A: Its value is 254 nm.

Q: What about the “maximum absorption wavelength, closed ring form” value ([1]; aqueous solution, photostationary state after 254 nm light) of the same molecule?
A: The value was 595 nm.

Q: What about the photochromism ([1]; aqueous solution, visible light longer than 600 nm) of the same molecule?
A: The photochromism was “reversible photochromism”.

Q: What about the water solubility [2] of the same molecule?
A: Its water solubility is “water soluble”.
